The values below come from publication PMC12716025, “Plectranthus‐derived Abietanes as Protein Kinase C‐δ Activators: In Silico Design, Human Serum Albumin Interaction, and Stability Evaluation” (Chemistry & Biodiversity, 2025).

The target of this assay is T1, Human serum albumin (HSA) (Homo sapiens, UniProt P02768).
T1 construct: gene ALB; Essentially fatty acid-free HSA, type A1887 (Sigma-Aldrich)
The assay can be described thus: intrinsic tryptophan fluorescence quenching (binding constant Ka, […]°C), synchronous fluorescence, thermal shift (Tm +[…]°C).

T1 sequence (P02768 25-609): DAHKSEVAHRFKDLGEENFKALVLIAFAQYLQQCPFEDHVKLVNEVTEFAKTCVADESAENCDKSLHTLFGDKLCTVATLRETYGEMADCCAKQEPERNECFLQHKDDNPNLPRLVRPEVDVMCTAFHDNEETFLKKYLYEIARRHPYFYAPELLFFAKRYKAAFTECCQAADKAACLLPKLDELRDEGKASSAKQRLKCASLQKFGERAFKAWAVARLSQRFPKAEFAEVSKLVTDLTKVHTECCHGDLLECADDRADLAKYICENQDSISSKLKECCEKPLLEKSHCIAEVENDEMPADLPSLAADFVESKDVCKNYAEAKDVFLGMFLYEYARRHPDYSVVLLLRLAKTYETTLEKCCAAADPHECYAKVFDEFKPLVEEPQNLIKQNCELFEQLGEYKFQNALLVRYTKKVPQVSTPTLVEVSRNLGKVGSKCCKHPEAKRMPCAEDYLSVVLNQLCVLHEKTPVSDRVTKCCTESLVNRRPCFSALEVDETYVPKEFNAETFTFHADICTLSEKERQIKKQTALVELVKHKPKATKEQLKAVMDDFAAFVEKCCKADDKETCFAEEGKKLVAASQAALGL

A word on the Kd: it is the free concentration of one partner at which half of the binding sites on the other are occupied at equilibrium, for simple one-to-one binding. In the case of `CC(=O)O[C@H]1C2=C(C(=O)C(O)=C(C(C)C)C2=O)[C@@]2(C)CCCC(C)(C)[C@@H]2[C@@H]1O` [compound 1, 7α-acetoxy-6β-hydroxyroyleanone], the Kd was 15.4 µM.
